Experimental data published in patent US20220259212A1, “INHIBITORS OF INDOLEAMINE 2,3-DIOXYGENASE AND/OR TRYPTOPHAN 2,3-DIOXYGENASE” (Idorsia Pharmaceuticals Ltd, priority 2019, published 2022).

Key:
[1] = target: T1, Recombinant full-length human IDO1 (Homo sapiens, UniProt P14902); test: IDO1 enzymatic assay (NFK quantified by LCMS); format: biochemical; settings: 2 nM enzyme, 5 μM L-tryptophan, 30 min pre-incubation, pH6.5; mean if measured multiple times; read-out: hIDO activity (IC50 in nM)
T1 construct: Recombinant full-length human IDO1 with a N-terminal hexahistidine tag; hexahistidine (N); made in house; host or cells: E. coli
Description: 1) Testing Compounds for IDO Inhibitory Activity in an IDO1 Enzymatic Assay:
Recombinant full-length human IDO1 with a N-terminal hexahistidine tag expressed in E. coli and purified to homogeneity is incubated at a final concentration of 2 nM in assay buffer consisting of 37.5 mM phosphate buffer at pH6.5 supplemented with 10 mM ascorbic acid, 0.45 μM methylene blue, 50 U/ml catalase, 0.01% BSA, and 0.01% Tween 20 (protocol modified from Seegers et al, JBS 2014). Example compounds are serially diluted in DMSO, further diluted in phosphate buffer, and added to the enzyme at final concentrations ranging from 10 μM to 0.5 nM. The final DMSO concentration is 0.6%. Following a pre-incubation of 30 minutes at RT, the reaction is started by the addition of L-tryptophan at a final concentration of 5 μM in assay buffer. After 30 minutes of incubation at RT, 3 μL of the 20 μl reaction mixture are transferred to a 384 deep well plate containing 25 μL of deionized water. 100 μl of 200 nM L-Tryptophan-(indole-d5) in cold 100% methanol are added followed by a 10 minutes centrifugation at 3220×g at 4° C. An additional 75 μL of deionized water are then added followed by a 10 minutes centrifugation at 3220×g at 4° C. The product of the reaction N′-Formylkynurenine (NFK) is quantified by LCMS and normalized to the L-Tryptophan-(indole-d5) signal. Samples with 0.6% DMSO (0% effect) and a TDO/IDO inhibitor (100% effect) are used as control samples to set the parameters for the non-linear regression necessary for the determination of the half-maximal inhibitory concentration (IC50) for each compound. For each compound concentration the percentage of activity compared to 0% and 100% effect is calculated as average±STDEV (each concentration measured in duplicate). IC50 values and curves are generated with XLfit software (IDBS) using Dose-Response One Site model 203 (four parameter logistic curve model). The calculated IC50 values may fluctuate depending on the daily assay performance. Fluctuations of this kind are known to those skilled in the art. When compounds are measured multiple times, mean values are given.

[2] = target: T2, Recombinant human TDO comprising amino acids 19-407 (Homo sapiens, UniProt P48775); test: TDO2 enzymatic assay (NFK quantified by LCMS); format: biochemical; settings: 15 nM enzyme, 200 μM L-tryptophan, 30 min pre-incubation, pH7; mean if measured multiple times; read-out: hTDO activity (IC50 in nM)
T2 construct: human TDO comprising amino acids 19-407; hexahistidine (N); made in house; host or cells: E. coli
Description: 2) Testing Compounds for TDO Inhibitory Activity in a TDO2 Enzymatic Assay:
Recombinant human TDO comprising amino acids 19-407 with a N-terminal hexahistidine tag expressed in E. coli and purified to homogeneity is incubated at a final concentration of 15 nM in assay buffer consisting of 75 mM phosphate buffer at pH7 supplemented with 100 μM ascorbic acid, 50 U/ml Catalase, 0.01% BSA, and 0.01% Tween 20 (protocol modified from Seegers et al, JBS 2014). Example compounds are serially diluted in DMSO, further diluted in phosphate buffer, and added to the reaction mixture at final concentrations ranging from 10 μM to 0.5 nM. The final DMSO concentration is 0.6%. Following a pre-incubation of 30 minutes at RT, the reaction is started by the addition of L-tryptophan at a final concentration of 200 μM in assay buffer. After 30 minutes of incubation at RT, 3 μL of the reaction mixture are transferred to a 384 deep well plate containing 25 μL of deionized water. 100 μl of 200 nM L-Tryptophan-(indole-d5) in cold 100% methanol are added followed by a 10 minutes centrifugation at 3220×g at 4° C. An additional 75 μL of deionized water are then added followed by a 10 minutes centrifugation at 3220×g at 4° C. The product of the reaction N′-Formylkynurenine (NFK) is quantified by LCMS and normalized to the L-Tryptophan-(indole-d5) signal. Samples with 0.6% DMSO (0% effect) and a TDO/IDO inhibitor (100% effect) are used as control samples to set the parameters for the non-linear regression necessary for the determination of the half-maximal inhibitory concentration (IC50) for each compound. For each compound concentration the percentage of activity compared to 0% and 100% effect is calculated as average±STDEV (each concentration measured in duplicate). IC50 values and curves are generated with XLfit software (IDBS) using Dose-Response One Site model 203 (four parameter logistic curve model). The calculated IC50 values may fluctuate depending on the daily assay performance. Fluctuations of this kind are known to those skilled in the art. When compounds are measured multiple times, mean values are given.

IDO1 in SKOV3 cells = target: T3, IDO1 in SKOV3 cells (Homo sapiens, UniProt P14902); test: Cell-based IDO inhibitory activity in IFNγ-stimulated SKOV3 cells (NFK + kynurenine by LCMS); settings: IFNγ 50 ng/ml, 200 uM L-tryptophan, 24 hours
T3 construct: SKOV3 cells (NCI, No. 0503405) which upregulate IDO1 after stimulation with IFNγ; host or cells: SKOV3 cells stimulated with IFNγ
Text: 3) Testing Compounds for IDO/TDO Inhibitory Activity and Toxicity in Cell-Based Assays
SW48 cells (ATCC, CCL-231) are used to measure compounds for TDO inhibitory activity and are routinely maintained in DMEM high glucose/GlutaMAX™/pyruvate 90% (v/v), FCS 10% (v/v), Penicilin/streptomycin 1% (v/v). SKOV3 cells (NCI, No. 0503405) which upregulate IDO1 after stimulation with IFNγ are used to measure compounds for IDO inhibitory activity. SKOV3 cells are routinely maintained in RPMI 90% (v/v), FCS 10% (v/v), Penicilin/streptomycin 1% (v/v). SW48 or SKOV3 cells are seeded in 384 well plates at a density of 8000 cells in 45 ul per well or 4000 cells in 45 ul per well, respectively. Plates are incubated at 37° C./5% CO2 for 24 hours. On the next day, 10 ul compound in serial dilutions (tested concentration range 10 uM-40 nM) and 200 uM L-tryptophan are added (SKV03 receive in addition IFNγ at a final concentration of 50 ng/ml). After 24 hours of incubation at 37° C./5% CO2, 3 ul of the supernatant per well is transferred to 25 ul H2O per well in a 384 deep well plate and 25 ul of the supernatant per well is transferred to waste. The SKOV3 and SW48 cell plates with 25 ul supernatant per well remaining are used to measure viability (see below). The 384 deep well plate containing 3 ul supernatant and 25 ul H2O per well are further processed for LCMS: After the addition of 100 ul L-tryptophan-(indole-d5) (Sigma 615862) at 200 nM in methanol, the 384 deep well plates are centrifuged for 10 minutes at 3220×g at 4° C., 75 ul H2O is added per well and plates centrifuged again for 10 minutes at 3220×g at 4° C. N-formylkynurenine and kynurenine are quantified by LCMS, normalized to the internal standard L-tryptophan-(indole-d5) and the sum is calculated. Samples with 0.2% DMSO (0% effect) and a TDO/IDO inhibitor (100% effect) are used as control samples to set the parameters for the non-linear regression necessary for the determination of the IC50 for each compound. For each compound concentration the percentage of activity compared to 0% and 100% effect is calculated as average±STDEV (each concentration measured in duplicate). IC50 values and curves are generated with XLfit software (IDBS) using Dose-Response One Site model 203. The calculated IC50 values may fluctuate depending on the daily cellular assay performance. Fluctuations of this kind are known to those skilled in the art. When compounds are measured multiple times, mean values are given.

T1 sequence (P14902 whole entry): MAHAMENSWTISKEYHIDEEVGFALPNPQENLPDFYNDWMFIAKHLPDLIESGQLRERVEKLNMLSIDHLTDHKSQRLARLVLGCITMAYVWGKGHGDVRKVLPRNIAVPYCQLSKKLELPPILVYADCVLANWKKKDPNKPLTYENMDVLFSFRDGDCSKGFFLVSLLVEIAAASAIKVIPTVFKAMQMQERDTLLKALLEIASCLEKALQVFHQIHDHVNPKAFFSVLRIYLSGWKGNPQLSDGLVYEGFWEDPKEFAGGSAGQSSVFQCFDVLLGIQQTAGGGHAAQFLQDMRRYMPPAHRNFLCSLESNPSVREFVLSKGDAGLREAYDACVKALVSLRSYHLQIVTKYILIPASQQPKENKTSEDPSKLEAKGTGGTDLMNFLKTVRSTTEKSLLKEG
T3 sequence (P14902 whole entry): as above
T2 sequence (P48775 19-406 limits assumed): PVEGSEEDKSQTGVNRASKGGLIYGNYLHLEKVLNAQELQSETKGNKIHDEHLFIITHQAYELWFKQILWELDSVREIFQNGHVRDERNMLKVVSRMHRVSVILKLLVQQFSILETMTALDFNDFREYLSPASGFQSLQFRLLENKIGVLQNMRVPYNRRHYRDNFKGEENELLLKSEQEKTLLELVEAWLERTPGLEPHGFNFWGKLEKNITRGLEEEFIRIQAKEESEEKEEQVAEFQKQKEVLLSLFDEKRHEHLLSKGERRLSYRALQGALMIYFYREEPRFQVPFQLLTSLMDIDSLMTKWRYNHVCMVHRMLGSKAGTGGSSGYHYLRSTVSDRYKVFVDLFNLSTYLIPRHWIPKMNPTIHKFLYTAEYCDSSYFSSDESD

IC50 [1]	IC50 [2]	IC50 (IDO1 in SKOV3 cells)	Structure (SMILES)
3.68 nM	8600 nM	52.4 nM	COc1ccc(-n2cc([C@H](O)c3c(Cl)ccc4cncn34)nn2)cc1 [Example 30, (R)-(6-Chloro-imidazo[1,5-a]pyridin-5-yl)-[1-(4-methoxy-phenyl)-1H-[1,2,3]triazol-4-yl]-methanol]
7.74 nM	> 10200 nM	29.9 nM	CC(C)(O)COc1ccc(-n2cc([C@H](O)c3c(C4CC4)ncc4cncn34)nn2)cc1F [Example 29, 1-(4-{4-[(R)-(6-Cyclopropyl-imidazo[1,5-a]pyrazin-5-yl)-hydroxy-methyl]-[1,2,3]triazol-1-yl}-2-fluoro-phenoxy)-2-methyl-propan-2-ol]
361 nM	> 10200 nM	703 nM	Oc1ccc(-n2cc([C@@H](O)c3c(C4CC4)ccc4cncn34)nn2)cc1Cl [Example 7b, 2-Chloro-4-{4-[(S)-(6-cyclopropyl-imidazo[1,5-a]pyridin-5-yl)-hydroxy-methyl]-[1,2,3]triazol-1-yl}-phenol]
16.5 nM	> 10200 nM	154 nM	O[C@@H](c1cn(-c2ccc(N3CCCC3)cc2)nn1)c1c(C2CC2)ncc2cncn12 [Example 40, (R)-(6-Cyclopropyl-imidazo[1,5-a]pyrazin-5-yl)-[1-(4-pyrrolidin-1-yl-phenyl)-1H-[1,2,3]triazol-4-yl]-methanol]
5.33 nM	> 10200 nM	127 nM	COc1ccc(-n2cc([C@H](O)c3c(C4CC4)ncc4cncn34)nn2)c(F)c1Cl [Example 33, (R)-[1-(3-Chloro-2-fluoro-4-methoxy-phenyl)-1H-[1,2,3]triazol-4-yl]-(6-cyclopropyl-imidazo[1,5-a]pyrazin-5-yl)-methanol]
6.17 nM	> 10200 nM	225 nM	Cc1ccc2cncn2c1C(O)c1cn(-c2ccccc2)nn1 (racemic) [Example 2, rac-(6-Methyl-imidazo[1,5-a]pyridin-5-yl)-(1-phenyl-1H-[1,2,3]triazol-4-yl)-methanol]
8.36 nM	> 10200 nM	399 nM	COCc1ccc(-n2cc([C@H](O)c3c(C4CC4)ncc4cncn34)nn2)cc1 [Example 24, (R)-(6-Cyclopropyl-imidazo[1,5-a]pyrazin-5-yl)-[1-(4-methoxymethyl-phenyl)-1H-[1,2,3]triazol-4-yl]-methanol]
1.82 nM	> 10200 nM	7.92 nM	CCc1ccc2cncn2c1[C@@H](O)c1cn(-c2ccc(OC)cc2)nn1 [Example 34a, (R)-(6-Ethyl-imidazo[1,5-a]pyridin-5-yl)-[1-(4-methoxy-phenyl)-1H-[1,2,3]triazol-4-yl]-methanol]
275 nM	8650 nM	8830 nM	OC(c1ccc(-c2ccccc2)s1)c1c(Cl)ccc2cncn12 (racemic) [Ref4, rac-(6-Chloro-imidazo[1,5-a]pyridin-5-yl)-(5-phenyl-thiophen-2-yl)-methanol, reference compound]
4.5 nM	> 10200 nM	74.3 nM	COc1c(F)cc(-n2cc([C@H](O)c3c(C4CC4)ncc4cncn34)nn2)cc1Cl [Example 26, (R)-[1-(3-Chloro-5-fluoro-4-methoxy-phenyl)-1H-[1,2,3]triazol-4-yl]-(6-cyclopropyl-imidazo[1,5-a]pyrazin-5-yl)-methanol]
4.29 nM	> 10200 nM	84.9 nM	Cc1ccc2cncn2c1[C@@H](O)c1cn(-c2ccccc2)nn1 [Example 2a, (R)-(6-Methyl-imidazo[1,5-a]pyridin-5-yl)-(1-phenyl-1H-[1,2,3]triazol-4-yl)-methanol]
5.43 nM	4710 nM	86 nM	Cc1c(C(O)c2c(Cl)ccc3cncn23)nnn1-c1ccccc1 (racemic) [Example 38, rac-(6-Chloro-imidazo[1,5-a]pyridin-5-yl)-(5-methyl-1-phenyl-1H-[1,2,3]triazol-4-yl)-methanol]
5.86 nM	> 10200 nM	33 nM	COc1cc(F)c(-n2cc([C@H](O)c3c(C4CC4)ncc4cncn34)nn2)cc1Cl [Example 25, (R)-[1-(5-Chloro-2-fluoro-4-methoxy-phenyl)-1H-[1,2,3]triazol-4-yl]-(6-cyclopropyl-imidazo[1,5-a]pyrazin-5-yl)-methanol]
3.88 nM	832 nM	64.2 nM	Cc1c(C(O)c2c(Cl)ccc3cncn23)nnn1-c1ccc(O)c(Cl)c1 (racemic) [Example 43, rac-2-Chloro-4-{4-[(6-chloro-imidazo[1,5-a]pyridin-5-yl)-hydroxy-methyl]-5-methyl-[1,2,3]triazol-1-yl}-phenol]
